According to article PMC9561728, “Safety and efficacy of a GLP-1 and glucagon receptor dual agonist mazdutide (IBI362) 9 mg and 10 mg in Chinese adults with overweight or obesity: A randomised, placebo-controlled, multiple-ascending-dose phase 1b trial” (eClinicalMedicine, 2022):
Read-outs that look alike come from different tables or passages of the source.

Key:
[1] = Non-compartmental plasma pharmacokinetics, phase 1b trial; type: in vivo; settings: human; for AUC(0-t) / Cmax: geometric mean (CV%); for AUC(0-t): n = 8, read-out: AUC0-168h; for Tmax: median (range); for Tmax / Cmax: n = 8; for Cmax: non-compartmental
From the text: 6.3 PK/ PD assessment vari ables
6.3.1 PK Sample Collection
PK sampling will be performed according to the Schedule of Visits (Table 2, Table 4, Table 6), PK/PD Sampling Schedule (Table 3- 1, Table 3- 2, Table 5-1, Table 5- 2, Table 7-1, Table 7- 2), and ex aminations will be performed at a central laborator y. 3 m L of whole blood was collected into a […] vacutainer, plasma was separated, aliquoted and stored frozen for PK analysis of IBI362. Details of sampling methods, sample storage, transportation and analysis were provided in the Laboratory Manual provided by the central laboratory designated by the sponsor. […]
• Pharmacokinetic parameters, including but not limited to Tmax, Cmax, product under the concentration- time curve (AUC), volum e of distribution (Vd), half-life (T1/2), clearan ce (C L) an d accumulation co efficient (AR); […]

[2] = test system: Chinese adults with overweight or obesity; test: Change from baseline in body weight, BMI and waist circumference (MMRM), phase 1b trial; type: in vivo, human; settings: for Participants who achieved 10% body weight loss or more / Participants who achieved 15% body weight loss or more: during the study; for Participants who achieved 10% body weight loss or more / Participants who achieved 15% body weight loss or more / CFB in BMI / CFB in body weight / CFB in waist circumference / Percent CFB in body weight: n = 8
Protocol: (§1) Secondary outcomes included pharmacokinetics, assessed by maximum observed plasma concentration (Cmax), time at which Cmax was observed (Tmax), terminal elimination half-life (t½), and area under the curve from time zero to 168 h after the first dose (AUC0–168 h) and immunogenicity, assessed by titters of anti-drug antibodies (ADAs) and neutralizing antibodies. Secondary efficacy outcomes included the change from baseline to week 12 (9 mg cohort) or week 16 (10 mg cohort) in body weight, waist circumference, BMI, as well as the change from baseline in HbA1c, lipids, transaminase and serum uric acid levels.
The sample size of 12 participants per cohort was empirically determined to provide preliminary safety, tolerability, pharmacokinetics data while minimizing the number of participants. No formal hypothesis testing was planned. Participants receiving placebo were pooled for analysis on the change from baseline in body weight, waist circumference and BMI.
The analyses for the change from baseline in body weight, waist circumference and BMI were performed using mixed-effect model for repeated measures (MMRM), with least squares mean change or mean percent change from baseline at each follow-up time analysed using a restricted maximum likelihood (REML)‐based repeated measures approach in combination with the Newton Raphson Algorithm. The MMRM included the corresponding baseline value, treatment, visit and treatment-by-visit as fixed effects and patient as a random effect, with an unstructured covariance matrix used. In case of non-converge, matrix like Variance Components and Compound Symmetry will be tested in a subsequent order until model‐convergence is achieved. The Kenward-Roger degree of freedom was used in estimating fixed effects. No missing data imputation was conducted. Point estimate of treatment difference versus placebo at week 12 for the 9 mg cohort and at week 16 for the 10 mg cohort were provided, together with corresponding 95% CI and nominal p value.

[3] = test system: Chinese adults with overweight or obesity; test: Vital signs and laboratory safety (heart rate, blood pressure, lipase, transaminases), phase 1b trial; type: in vivo, human; settings: for Mean change from baseline in heart rate (maximum): placebo 4.3
From the text: The primary outcomes were safety and tolerability of mazdutide.
(§2) Summaries for other efficacy and safety variables included descriptive statistics for continuous measures (mean and standard deviation or standard error) and for categorical measures (sample size, frequency and percentages).

[4] = test system: Chinese adults with overweight or obesity; test: Immunogenicity: anti-drug antibodies and neutralizing antibodies, phase 1b trial; type: in vivo, human; settings: for Participants who developed treatment-induced anti-mazdutide antibodies: n = 8
Protocol: as §1

[5] = test system: Chinese adults with overweight or obesity; test: HbA1c and metabolic parameters, phase 1b trial; type: in vivo, human
Protocol: as §1, §2

[6] = Solubility of the study drug; type: physicochemical; settings: study protocol
Protocol: (§3) 5.2.1 Physical and chemical characteristi cs of the study drug
(§4) Molecular Weight: 4560.32 Daltons
(§5) Description: White to off-white powder
(§6) Solubility: Solvent: 20 mM Tris buffer at pH 8.0 and 150 mM sodium chloride.
(§7) Solubility: Not less than 10 mg/mL at 25 ℃.
(§8) 5.2.2 Study Drug Strength and Manufacturer
(§9) The IB I362 dru g produ ct is IBI362 for injection an d consists of 2 mg IB I362 and the […]
(§10) contents are reconstituted with sterile water for injection to obtain a clear solution of […]
(§11) ingredients tris (hydroxymethyl) aminomethane, mannitol, and sucrose." The vial contents are reconstituted with sterile water for injection to obtain a clear solution devoid […]
(§12) The dru g product stren gt h used in this stud y was 2 mg/vial, and the placebo strengt h matched the drug product and was provided b y the Sponsor.
(§13) The drug product and placebo should be stored under refrigerated conditions (2 ℃ […]
(§14) 5.2.4 Mode of administration
(§15) Both IBI362 and placebo will be administered by subcutaneous injection once a week. Each dose should be prepared and injected by the stud y nurse. See the Instructions for Use fo rdetails of the preparation and use of the study drug.
(§16) 5.3.1 Prohibited Medications
(§17) The following m edicatio ns and measur es ar e cont raindicated:
(§18) 1. Growth hormone and its analogues;
(§19) 2. Any systemic corticosteroid (including intravenous, oral, intra-articular) administered for ≥ 7 da ys. […]

[7] = Isoelectric point (PI) of the study drug; type: physicochemical; settings: study protocol
Protocol: as §3, §4, §5, §6, §7, §8, §9, §10, §11, §12, §13, §14, §15, §16, §17, §18, §19

[8] = test system: Chinese adults with overweight or obesity; settings: in vivo
Protocol: (§21) The study included a 3-week screening period, a 12-week or 16-week treatment period and an 8-week safety follow-up period. During the treatment period, mazdutide or placebo was subcutaneously administered once weekly with one of the following dose-escalation regimens: 9 mg cohort (3 mg weeks 1-4; 6 mg weeks 5-8; 9 mg weeks 9-12) and 10 mg cohort (2.5 mg weeks 1-4; 5 mg weeks 5-8; 7.5 mg weeks 9-12; 10 mg weeks 13-16) (Figure S1). The escalation regimen in the 10 mg cohort provided relatively slower titration (2.5 mg every 4 weeks) to the target dose of 10 mg, and the escalation regimen in the 9 mg cohort adopted faster titration (3 mg every 4 week). Participants were required to maintain the original diet, exercise and lifestyle during the trial.
(§22) The primary outcomes were safety and tolerability of mazdutide. […] The severity of the TEAEs (mild, moderate or severe) and the association between an event and the study drug was assessed by investigators based on pre-specified criteria.
(§23) Safety analyses were done in the safety population (defined as all participants who received at least one dose of the study treatment).

[9] = test system: Chinese adults with overweight or obesity; settings: low dose cohorts; cited from earlier work
Protocol: Summary Background Mazdutide (also known as IBI362 or LY3305677), a novel once-weekly glucagon-like peptide-1 (GLP-1) and glucagon receptor dual agonist, achieved 12-week body weight loss up to 6.4% at doses up to 6 mg in Chinese adults with overweight or obesity. We further explored the safety and efficacy of mazdutide dosed up to 9 mg and 10 mg. Methods In this randomised, placebo-controlled, multiple-ascending-dose phase 1b trial, we enrolled adults (aged 18-75 years, both inclusive) with overweight (body-mass index [BMI] ≥24 kg/m^2) accompanied by hyperphagia and/or at least one obesity-re ... || A PubMed search on July 4, 2022, with the terms “glucagon-like peptide-1″, [AND] “glucagon receptor”, [AND] “dual agonist”, in the Title or Abstract yielded 31 results. […] Mazdutide dosed up to 6 mg achieved 12-week mean body weight loss up to 6.4% in Chinese adults with overweight or obesity. || Mazdutide (also known as IBI362 or LY3305677) is a once-weekly mammalian oxyntomodulin analogue. […] In a phase 1b clinical trial in Chinese adults with overweight or obesity, mazdutide dosed up to 6 mg achieved 12-week mean body weight loss up to 6.4%.[11] Given the favourable safety profile and the robust body weight loss achieved in the low-dose cohort ... || (+ 2 further places)

Japanese and US subjects = settings: single-dose (0.03, 0.1, 0.3, 1.0, 2.5, 5.0 mg) escalation, ref earlier single-dose studies quoted in protocol; cited from earlier work
human GLP-1 receptors = settings: in vitro; cited from earlier work
Protocol: (§20) Mazdutide (also known as IBI362 or LY3305677) is a once-weekly mammalian oxyntomodulin analogue. […] In a phase 1b clinical trial in Chinese adults with overweight or obesity, mazdutide dosed up to 6 mg achieved 12-week mean body weight loss up to 6.4%.[11] Given the favourable safety profile and the robust body weight loss achieved in the low-dose cohort ...

human glucagon receptors = settings: in vitro; cited from earlier work
Protocol: as §20

mice = settings: cited from earlier work
Protocol: as §20

mouse GLP-1 receptors = settings: in vitro; cited from earlier work
Protocol: as §20

mouse glucagon receptors = settings: in vitro; cited from earlier work
Protocol: as §20

[10] = test system: Chinese adults with overweight or obesity; test: Treatment-emergent adverse events, phase 1b trial, 9 mg and 10 mg cohorts; settings: n = 8
Protocol: as §21, §22, §23

[11] = 9 mg cohort, week 12, LS mean (SE), MMRM
[12] = 9 mg cohort, week 12, estimate (95% CI), MMRM
[13] = 10 mg cohort, week 16, LS mean (SE), MMRM
[14] = 10 mg cohort, week 16, estimate (95% CI), MMRM
[15] = 9 mg cohort, week 12, participants without type 2 diabetes
[16] = 9 mg cohort (sc QW 3/6/9 mg, 4 wk each)
[17] = 10 mg cohort (sc QW 2.5/5/7.5/10 mg, 4 wk each)

## CC(C)C[C@H](NC(=O)[C@H](CC(C)C)NC(=O)[C@H](Cc1c[nH]c2ccccc12)NC(=O)[C@H](CCC(=O)O)NC(=O)[C@@H](NC(=O)[C@H](Cc1ccccc1)NC(=O)[C@H](CCC(=O)O)NC(=O)[C@H](CCCCNC(=O)COCCOCCNC(=O)COCCOCCNC(=O)CC[C@H](NC(=O)CCCCCCCCCCCCCCCCCCC(=O)O)C(=O)O)NC(=O)[C@H](C)NC(=O)[C@H](CCCCN)NC(=O)[C@H](CCCCN)NC(=O)[C@H](CCC(=O)O)NC(=O)[C@H](CC(=O)O)NC(=O)[C@H](CC(C)C)NC(=O)[C@H](Cc1ccc(O)cc1)NC(=O)[C@H](CCCCN)NC(=O)[C@H](CO)NC(=O)[C@H](Cc1ccc(O)cc1)NC(=O)[C@H](CC(=O)O)NC(=O)[C@H](CO)NC(=O)[C@@H](NC(=O)[C@H](Cc1ccccc1)NC(=O)[C@@H](NC(=O)CNC(=O)[C@H](CCC(N)=O)NC(=O)C(C)(C)NC(=O)[C@@H](N)Cc1c[nH]cn1)[C@@H](C)O)[C@@H](C)O)C(C)C)C(=O)N[C@@H](CCC(=O)O)C(=O)NCC(=O)NCC(=O)N1CCC[C@H]1C(=O)N[C@@H](CO)C(=O)N[C@@H](CO)C(=O)NCC(N)=O [Mazdutide]
[1]; after first sc dose 2.5 mg
  AUC(0-t): 21800 ng·h/mL
  Tmax: 72.3 h
  Cmax: 179 ng/mL
[1]; after first sc dose 3 mg
  AUC(0-t): 31400 ng·h/mL
  Tmax: 72.4 h
  Cmax: 226 ng/mL
[2]; 9 mg cohort
  Participants who achieved 10% body weight loss or more: 50%
  Participants who achieved 15% body weight loss or more: 25%
[2]; [11]
  CFB in BMI: −3.51 (0.46) kg/m^2
  CFB in body weight: −9.23 (1.2) kg
  CFB in waist circumference: −5.79 (1.45) cm
  Percent CFB in body weight: −11.7 (1.5) %
[2]; [12]
  CFB in BMI, ETD versus pooled placebo: −2.96 (−4.37, −1.54) kg/m^2
  CFB in body weight, ETD versus pooled placebo: −7.65 (−11.32, −3.98) kg
  CFB in waist circumference, ETD versus pooled placebo: −5.15 (−9.63, −0.67) cm
  Percent CFB in body weight, ETD versus pooled placebo: −9.8 (−14.4, −5.3) %
[2]; 10 mg cohort
  Participants who achieved 10% body weight loss or more: 50%
  Participants who achieved 15% body weight loss or more: 25%
[2]; [13]
  CFB in BMI: −2.96 (0.56) kg/m^2
  CFB in body weight: −7.62 (1.39) kg
  CFB in waist circumference: −3.36 (1.59) cm
  Percent CFB in body weight: −9.5 (1.7) %
[2]; [14]
  CFB in BMI, ETD versus placebo: −1.89 (−3.63, −0.15) kg/m^2
  CFB in body weight, ETD versus placebo: −4.76 (−9.10, −0.43) kg
  CFB in waist circumference, ETD versus placebo: −1.18 (−7.65, 5.29) cm
  Percent CFB in body weight, ETD versus placebo: −6.2 (−11.5, −0.9) %
[3]; 9 mg cohort
  Mean change from baseline in heart rate (maximum): up to 17.4 beats per minute
[3]; 10 mg cohort, 153 U/L at baseline, upper limit of normal 300 U/L, returned to normal at safety follow-up
  Lipase level in one participant at week 16: 739 U/L
[3]; 10 mg cohort
  Mean change from baseline in heart rate (maximum): ≤ 11.6 beats per minute
[3]; one participant in 9 mg cohort, one in 10 mg cohort
  Transaminase elevation in the two participants with ALT/AST increased: mild (within three times upper limit of normal) and transient
[4]; 9 mg cohort
  Participants who developed treatment-induced anti-mazdutide antibodies: Two
[4]; 10 mg cohort
  Participants who developed treatment-induced anti-mazdutide antibodies: four
[4]; 10 mg cohort, attenuated cAMP generation in CHO cells over-expressing human recombinant glucagon receptors
  Participants who developed neutralizing antibodies: One
[5]; [15]
  Participants with a 0.4% HbA1c reduction from baseline: three
  Participants with a 0.8% HbA1c reduction from baseline: two
[5]; 10 mg cohort, week 16, participants without type 2 diabetes
  Participants with a 0.4% HbA1c reduction from baseline: two
[5]; both dose regimens, compared with placebo
  Metabolic parameters including triglycerides, low density lipoprotein cholesterol, total cholesterol and serum uric acid: Greater improvements
[5]; high-dose cohorts
  Non-diabetic participants with slight elevation in end-of-treatment HbA1c levels: two
[6]; 20 mM Tris buffer at pH 8.0 and 150 mM sodium chloride, 25 ℃
  Solubility: Not less than 10 mg/mL
[6]
  Solubility Description: Sparingly or slightly soluble
[7]
  PI: 5.2
[8]
  Participants with treatment-emergent adverse events: 100%
  Severity of treatment-emergent adverse events: all mild or moderate in severity
[9]
  Incidence of abdominal distension: 12.5%
  Incidence of diarrhoea: 37.5%
  Incidence of nausea: up to 37.5%
  Incidence of vomiting: 12.5%
Japanese and US subjects
  maximum tolerated dose (MTD) of single-dose study: 2.5 mg
Human GLP-1 receptors
  Binding to human GLP-1 receptors: potently bound
Human glucagon receptors
  Binding to human glucagon receptors: potently bound
mice; both Gcgr knockout (KO) and Glp1r KO settings
  Body weight: decreased body weight
mice
  Energy expenditure: increased energy expenditure
  Glucose control: improved glucose control
Mouse GLP-1 receptors
  Binding to mouse GLP-1 receptors: potently bound
Mouse glucagon receptors
  Binding to mouse glucagon receptors: potently bound
[10]; [16]
  TEAE: Infections and infestations (system organ class): 6 (75.0) n (%)
  TEAE: Upper respiratory tract infection: 3 (37.5) n (%)
  TEAE: Urinary tract infection: 4 (50) n (%)
[10]; [17]
  TEAE: Infections and infestations (system organ class): 5 (62.5) n (%)
  TEAE: Upper respiratory tract infection: 4 (50) n (%)
  TEAE: Urinary tract infection: 2 (25) n (%)
